Patent US20100267744A1, “Pharmaceutical Compositions” (Vertex Pharmaceuticals Incorporated, priority 2006, published 2010)

How the values were obtained:
[1] = type: physicochemical
Source text: The manufacture of an amorphous solid dispersion containing VX-950 presented several challenges. […] Therefore, an appropriate solvent or solvent mixture is crucial to optimizing the processing and production of a solid dispersion.

[2] = Chemical reactivity of VX-950 with alcohol solvents; type: physicochemical; settings: MeOH, EtOH, iPrOH
Source text: The manufacture of an amorphous solid dispersion containing VX-950 presented several challenges. […] Therefore, an appropriate solvent or solvent mixture is crucial to optimizing the processing and production of a solid dispersion. In preferred processes, the solvent includes a volatile solvent. In some embodiments, the solvent includes a mixture of volatile solvents. Preferable solvents include those that can dissolve both VX-950 and the polymers. Suitable solvents include those described above, for example, methylene chloride, acetone, etc. In more preferred processes, the solvent is a mixture of methylene chloride and acetone. The percent weight ratio of methylene chloride:acetone can be for example, about 100:0, about 90:10, about 80:20, about 70:30, about 60:40, and is preferably about 80:20 or about 70:30. The solvent or solvent mixture can also contain a non volatile solvent, such as glacial acetic acid. The organic acid or polar solvent solvent can be, e.g., up to about 5%, up to about 10%, or up to about 15% by weight of the solvent mixture. For example, a solvent mixture can contain a percent weight ratio of methylene chloride:acetone:glacial acetic acid of about 67:28:5 or 63:27:10. […] Such a solvent should not contain an OH group or a similarly reactive moiety. In these processes, therefore, a preferred solvent is other than an alcohol.

[3] = in vivo; settings: rat, po

- aqueous solubility [1]: virtually undetectable
- pH dependence of aqueous solubility [1]: not pH-dependent
- solubility in water [1]: highly insoluble
- bioavailability [3]: < 0.5%
SMILES: CCC[C@H](NC(=O)[C@@H]1[C@H]2CCC[C@H]2CN1C(=O)[C@@H](NC(=O)[C@@H](NC(=O)c1cnccn1)C1CCCCC1)C(C)(C)C)C(=O)C(=O)NC1CC1 [VX-950]
- solubility in water or most other conventional organic solvents [1]: does not dissolve to a significant amount
- chemical reactivity with alcohols [2]: has shown chemical reactivity with some alcohols
